In one data set the test system is NOD mice. Kind of data set: Diabetes incidence in NOD mice after senolytic treatment. Type of data set: in vivo. The method, then:
FIG. 2 depicts the incidence of diabetes in a cohort of NOD mice treated with ABT-199 (n=5) or vehicle (n=5).
For studies using ABT-737, 10 week old euglycemic NOD/ShiltJ mice were given oral gavage of 100 mg/kg ABT-737 or vehicle (30% propylene glycol, 5% Tween-80 and 65% D5W) for 3 consecutive days followed by a break for 4 days and then again treated for 3 days (a total of 6 doses), and then untreated for 2 weeks followed by three consecutive days of ABT-737 or vehicle treatment and then allowed to age without further treatment until 28 weeks of age.
To determine whether clearance of SASP beta cells prevented diabetes, 10 week euglycemic NOD mice were administered ABT-737 by oral gavage for two weeks, followed by another dose at 16 weeks and allowed to age. Strikingly, while 60% of vehicle control mice were diabetic at this time, only 40% of ABT-737-treated mice became diabetic. We performed a similar study with ABT-199, administering the drug by oral gavage for 2 weeks from 11-13 weeks of age and allowing the mice to age to 30 weeks. Remarkably, while 100% of the controls became diabetic by 28 weeks, only 10% of the ABT-199-treated mice were diabetic (FIG. 2).

In data set [1] the test system is CD45-depleted islet cells. Kind of data set: SASP factors in conditioned media from CD45-depleted islet cells of treated NOD mice. Type of data set: in vivo. As to conditions: compared to vehicle control mice. The method, then:
The secretome of islet cells from the 14-16 week NOD mice was analyzed. Islets depleted of CD45^+ cells were cultured in serum-free media and the resulting culture supernatant, hereafter referred to as conditioned media (CM) was analyzed using a bead-based multi-analyte luminex assay including a variety of key SASP factors and immune cell-specific non-SASP factors (IL-2, Granzyme B). Consistent with the immunohistochemistry analysis, the secretion of SASP factors (IL-6, Serpine1, G-CSF, Ccl2, Mmp9, Mmp12 and Igfpb3) was dramatically higher in the CD45-depleted islet cell populations from 14-week NOD mice as compared with 8-week mice. To determine the time-course of the stress response and SASP in beta cells, younger cohorts of 10 and 12-week old euglycemic NOD mice were analyzed by immunostaining for Cdknla and IL-6.
(§1) Similarly, THP1 chemotaxis activity was reduced in the CM upon ABT-737 treatment of islets relative to vehicle-treated islets ex vivo.

In the next data set the test system is immune compartment. Kind of data set: Flow cytometry of immune cell types in spleen, pancreatic lymph nodes and islets of treated mice. Type of data set: in vivo, NOD mice. As to conditions: pancreatic lymph nodes, islets; for proportions or balance of effector T cells, B cells and regulatory T cells: relative to vehicle control mice. The method, then: (§2) Example 5. Targeted depletion of SASP beta cells prevents diabetes in NOD mice The impact of senolytic treatments on immune cells was assessed. In islets from NOD mice treated with ABT-737, there was a 2-fold increase in apoptotic cells, as measured by flow cytometry for Annexin V and propidium iodide, in the endocrine compartment compared to vehicle control mice (FIG. 1). […] Flow cytometry was then used to examine the distributions and proportions of main lymphoid cell types involved in T1D in the spleen, pancreatic lymph nodes, and islets from vehicle control and ABT-737- and ABT-199-treated mice.

In data set [2] the test system is NOD islets. The experiment in a line: NOD islets treated with BH3 mimetics, senescence marker mRNA. As to conditions: NOD islets treated with BH3 mimetic. Type of data set: cell-based, mouse. An excerpt: Example 4. BH3 mimetics preferentially eliminate SASP beta cells in NOD mice. To determine the role of SASP cells in the development of T1D, we next explored whether pro-survival checkpoints could be exploited to promote selective deletion of senescent beta cells. […] The Bcl-2 family contains a hydrophobic groove called the BH3 domain and ‘BH3 mimetics’ are pharmacological compounds that mimic the binding of the BH3-only initiator proteins to the pro-survival members. The BH3 mimetics can trigger apoptosis with some specificity in cells that have high levels of Bcl-2 or the related members. A number of small molecule inhibitors that target Bcl-2, Bcl-xL, Bcl-w or Mcl-1 proteins have been developed and some of them have been used to preferentially trigger apoptosis in senescent cells, both in vitro and in vivo. To determine which Bcl-2 pro-survival members were relevant to SASP islet cells, we treated NOD islets with BH3 mimetics that had different specificities. ABT-737 targets Bcl-2 and family members Bcl-xL and Bcl-w, ABT-199 selectively targets Bcl-2, and Maritoclax targets only Mcl-1. […]

Data set [3] has as its system NOD MEFs and 8-week NOD islet cells. The experiment in a line: Paracrine senescence activity of conditioned media from islet cells of treated mice. Type of data set: cell-based, mouse. As to conditions: CM from CD45-depleted islet cells of treated mice, on NOD MEFs and 8-week NOD islet cells. The method, then: Example 3. Non-cell autonomous activities of islet SASP. To address whether the SASP of beta cells had non-cell autonomous effects resembling SASP, the ability of secreted factors from CD45-depleted islet cells of 14 wk NOD mice to induce senescence in NOD mouse embryonic fibroblasts (MEFs) and in 8 week NOD islets (when senescence is not observed) was assessed. When early passage NOD MEFs were cultured in the presence of CM from 14 wk CD45-depleted NOD islet cells (NCM) they induced Cdkn1a and Cdkn2a expression and increased SA-βgal activity, similarly to the senescent MEF CM control (SCM). The NCM was also capable of increasing the proportion of SA-βgal^+ cells in the cultured islets from 8 week old NOD mice.
as §1

Another data set concerns human THP-1 cell line. Kind of data set: THP1 monocyte chemotaxis (transwell) with conditioned media of treated islets. Type of data set: cell-based. As to conditions: treatment of islets ex vivo, relative to vehicle-treated islets. The method, then: The ability of CM from NOD islet cells and human islets to induce monocyte chemotaxis using the transwell assay was tested using the human THP-1 cell line. NCM was capable of stimulating chemotaxis 3-fold over the SFM control, similarly to the positive control, serum-free media conditioned with recombinant mouse CCL2. In addition, CM from human islets expressing SASP induced THP1 chemotaxis ˜5-fold over the SFM control.
as §1

The next data set relates to SASP beta cells. The experiment in a line: ABT-737 oral gavage in NOD mice, immunostaining of senescence and SASP markers in beta cells. Type of data set: in vivo. As to conditions: oral gavage for 1 week. The method, then:
To determine whether ABT-737 targeted SASP beta cells for apoptosis in vivo, NOD mice were administered ABT-737 via oral gavage for 1 week followed by analysis of senescence and SASP markers by immunostaining.

Data set [4] relates to NOD islets. The experiment in a line: Apoptosis in islets of treated NOD mice (Annexin V/propidium iodide flow cytometry, TUNEL). Type of data set: in vivo. The method, then:
FIG. 1 depicts the abundance of apoptotic cells (Annexin V^+) in the CD45-(endocrine enriched) fractions of NOD islets treated with ABT-737 for two weeks, compared to control vehicle-treated mice (n=2 mice per group), error bars are s.d. *p<0.05, two-tailed T-test.
as §2
(In flow cytometry, cells or beads pass a laser one at a time.)

Data set [5] relates to normal human donor islets. The experiment in a line: Bleomycin-induced senescence and SASP in normal human donor islets. Type of data set: cell-based. The method, then: Next, normal human donor islets were treated with the chemotherapeutic agent bleomycin to induce double-strand DNA breaks and monitored the development of stress-induced senescence and SASP by qRT-PCR and secretion assays after 5 days, coinciding with the typical onset of SASP.

In the data set with NOD mice (dosed 2 weeks from 11-13 weeks of age, by 28 weeks, 100% of controls diabetic), `CC1(C)CCC(CN2CCN(c3ccc(C(=O)NS(=O)(=O)c4ccc(NCC5CCOCC5)c([N+](=O)[O-])c4)c(Oc4cnc5[nH]ccc5c4)c3)CC2)=C(c2ccc(Cl)cc2)C1` [ABT-199] had a treated mice diabetic of 10%. For the same compound, in [1], the “levels of SASP factors in CM from CD45-depleted islet cells” value is given as “lower levels of most of the SASP factors”. Moreover, in the data set on immune compartment, the “proportions of macrophages or dendritic cells” value is recorded as “no changes”; the “proportions or balance of effector T cells, B cells and regulatory T cells” value was “no significant changes”. Further, in the data set with NOD islets [2], the “Cdkn1a mRNA from treated islets” value is on record as “significant reduction” and the “Cdkn2a mRNA from treated islets” value is recorded as “significant reduction”.
As to `CN(C)CC[C@H](CSc1ccccc1)Nc1ccc(S(=O)(=O)NC(=O)c2ccc(N3CCN(Cc4ccccc4-c4ccc(Cl)cc4)CC3)cc2)cc1[N+](=O)[O-]` [ABT-737], the “treated mice that became diabetic” value in the data set with NOD mice (10 week NOD mice, oral gavage two weeks plus another dose at 16 weeks, 60% of vehicle controls diabetic) turned out to be 40%. In addition, the “levels of SASP factors in CM from CD45-depleted islet cells” value in data set [1] is “lower levels of most of the SASP factors”. Also, in data set [3], the “paracrine senescence activity of CM” value was “diminished”. Besides, in the data set on immune compartment, the “proportions of macrophages or dendritic cells” value is “no changes”; the “proportions or balance of effector T cells, B cells and regulatory T cells” value was “no significant changes”. Also, in the data set with human THP-1 cell line, the “THP1 chemotaxis activity of CM” value was “reduced”. In the data set on NOD islets [2], the “Cdkn1a mRNA from treated islets” value is on record as “significant reduction” and the “Cdkn2a mRNA from treated islets” value was “significant reduction”. In addition, the “Cdkn2a expression in beta cells (immunostaining)” value in the data set on SASP beta cells was “marked reduction”. Moreover, the “reduction in Cdkn2a+ beta cells” value in the data set with SASP beta cells (quantification) is on record as “over 40%”. Moreover, the “SASP marker Mmp2+ beta cells” value with SASP beta cells (relative to controls) is “only rarely detected”. Also, the “increase in apoptotic cells (Annexin V+) in the endocrine compartment” value in the data set with NOD islets [4] (CD45- fraction of NOD islets, treated two weeks, compared to vehicle control mice) turned out to be 2 fold. In the data set on NOD islets [4] (pancreata from treated mice), the “TUNEL staining of apoptotic islet cells” value is recorded as “showed TUNEL^+ cells within the islet”. For the same compound, the “apoptosis in the immune compartment” value with NOD islets [4] (relative to vehicle controls) is listed as “no significant differences”.
In the case of `O=C(c1ccccc1O)c1[nH]c(Cl)c(Cl)c1-n1c(C(=O)c2ccccc2O)cc(Cl)c1Cl` [Maritoclax], in the data set on NOD islets [2], the “Cdkn1a mRNA from treated islets” value was “did not have effects” and the “Cdkn2a mRNA from treated islets” value is listed as “did not have effects”.
Turning to bleomycin, in data set [5] (after 5 days), the “expression of CDKN1A and CDKN2A (qRT-PCR)” value is on record as “induced expression”. The “SASP factors IL-6, IL-8, IL-1β and TNFα in CM (Luminex)” value in data set [5] (compared with control islet CM) is reported as “increased levels”.

The values above are taken from patent US11419883B2, “Inhibiting senescent processes in beta cells for the prevention of type 1 diabetes” (The Regents of the University of California, priority 2017, dated 2022).
